Assay results: patent US9540391B2, “Isomannide derivatives as inhibitors of soluble epoxide hydrolase” (SANOFI, priority 2013, dated 2017)
pIC50: −log10 of the molar value.

Molecular target: T1, recombinant sEH (Homo sapiens, UniProt P34913)
T1 construct: made in house; host or cells: Sf9 insect cells
T1 sequence (P34913 1-555): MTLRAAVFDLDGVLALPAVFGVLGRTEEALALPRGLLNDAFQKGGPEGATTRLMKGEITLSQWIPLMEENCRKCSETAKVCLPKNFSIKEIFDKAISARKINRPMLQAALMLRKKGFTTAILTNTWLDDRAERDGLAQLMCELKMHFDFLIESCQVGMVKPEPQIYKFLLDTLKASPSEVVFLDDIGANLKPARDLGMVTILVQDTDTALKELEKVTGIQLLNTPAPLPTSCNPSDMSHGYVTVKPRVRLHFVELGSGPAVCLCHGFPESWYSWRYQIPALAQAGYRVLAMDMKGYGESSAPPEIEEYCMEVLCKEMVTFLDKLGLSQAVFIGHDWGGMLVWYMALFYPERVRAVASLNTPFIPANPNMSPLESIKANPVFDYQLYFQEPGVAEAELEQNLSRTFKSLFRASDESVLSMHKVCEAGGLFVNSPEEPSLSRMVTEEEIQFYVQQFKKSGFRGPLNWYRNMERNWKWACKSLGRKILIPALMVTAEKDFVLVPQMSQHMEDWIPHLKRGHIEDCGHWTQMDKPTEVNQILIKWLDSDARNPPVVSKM
Assay: biochemical screening assay for inhibition of soluble epoxide hydrolase (fluorometric, Phome substrate)
How it was run: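 Human sEH from Sf9 cells (2 nM final) was pre-incubated 15 min at 30 °C with compound (0.0001–10 μM), then reacted 60 min at 30 °C with 5 μM Phome in 25 mM Hepes/0.01% albumin. Fluorescence of released 6-methoxy-2-naphthaldehyde was read before substrate and at end; IC50 from % inhibition.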

Compound	pIC50
COC(=O)c1ccc(O[C@H]2CO[C@H]3[C@@H]2OC[C@@H]3NC(=O)NC2CCCCC2)cc1 [Example 10, 4-[(3S,3aS,6S,6aR)-6-(3-cyclohexyl-ureido)-hexahydro-furo[3,2-b]furan-3-yloxy]-benzoic acid methyl ester]	8.52
Cc1ncccc1O[C@H]1CO[C@H]2[C@@H]1OC[C@@H]2NC(=O)NC(C)(C)c1ccc(F)cc1 [Example 204, 1-[1-(4-Fluoro-phenyl)-1-methyl-ethyl]-3-[(3S,3aR,6S,6aS)-6-(2-methyl-pyridin-3-yloxy)-hexahydro-furo[3,2-b]furan-3-yl]-urea]	6.13
O=C(NC1CCN(C(=O)C(F)(F)F)CC1)N[C@H]1CO[C@H]2[C@@H]1OC[C@@H]2Oc1ccc(F)cc1 [Example 157, 1-[(3S,3aR,6S,6aS)-6-(4-Fluoro-phenoxy)-hexahydro-furo[3,2-b]furan-3-yl]-3-[1-(2,2,2-trifluoro-acetyl)-piperidin-4-yl]-urea]	7.96
C[C@@H](NC(=O)N[C@H]1CO[C@H]2[C@@H]1OC[C@@H]2Oc1ccc(F)cc1)c1ccc(Cl)cc1 [Example 166, 1-[(R)-1-(4-Chloro-phenyl)-ethyl]-3-[(3S,3aR,6S,6aS)-6-(4-fluoro-phenoxy)-hexahydro-furo[3,2-b]furan-3-yl]-urea]	7.74
O=C(Nc1ccc(F)cc1)N[C@H]1CO[C@H]2[C@@H]1OC[C@@H]2/C=C\c1ccsc1 [Example 340, 1-(4-Fluoro-phenyl)-3-[(3S,3aR,6S,6aR)-6-((Z)-2-thiophen-3-yl-vinyl)-hexahydro-furo[3,2-b]furan-3-yl]-urea]	7.05
Cc1ncccc1O[C@H]1CO[C@H]2[C@@H]1OC[C@@H]2NC(=O)NC1CCC(C)CC1C (stereo partly drawn) [Example 276, 1-(2,4-Dimethyl-cyclohexyl)-3-[(3S,3aR,6S,6aS)-6-(2-methyl-pyridin-3-yloxy)-hexahydro-furo[3,2-b]furan-3-yl]-urea]	9.00
Cc1ncccc1O[C@H]1CO[C@H]2[C@@H]1OC[C@@H]2NC(=O)NC1CCCC(C)C1 (stereo partly drawn) [Example 258, 1-(3-Methyl-cyclohexyl)-3-[(3S,3aR,6S,6aS)-6-(2-methyl-pyridin-3-yloxy)-hexahydro-furo[3,2-b]furan-3-yl]-urea]	8.70
O=C(NCc1ccc(F)cc1)N[C@H]1CO[C@@H]2[C@@H]1OC[C@H]2C#Cc1ccccc1 [Example 288, 1-(4-Fluoro-benzyl)-3-[(3S,3aR,6R)-6-((S)-phenylethynyl)-hexahydro-furo[3,2-b]furan-3-yl]-urea]	6.83
O=C(NC1CCCCC1)N[C@H]1CO[C@H]2[C@@H]1OC[C@@H]2SCCO [Example 14, 1-Cyclohexyl-3-[(3S,3aR,6S,6aS)-6-(2-hydroxy-ethylsulfanyl)-hexahydro-furo[3,2-b]furan-3-yl]-urea]	7.72
O=C(Nc1ccc(Cl)c(Cl)c1)NC1COC2C(C=Cc3ccccc3)COC12 [Example 326, 1-(3,4-Dichloro-phenyl)-3-[(3S,3aR,6R)-6-((S)-(Z)-styryl)-hexa-hydro-furo[3,2-b]furan-3-yl]-urea]	7.57
O=C(Nc1ccc(F)cc1)NC1COC2C(C#Cc3ccccc3)COC12 [Example 292, 1-(4-Fluoro-phenyl)-3-[(3S,3aR,6R)-6-((S)-phenylethynyl)-hexahydro-furo[3,2-b]furan-3-yl]-urea]	7.34
CC(C)S[C@H]1CO[C@H]2[C@@H]1OC[C@@H]2NC(=O)NC1CCCCC1 [Example 17, 1-Cyclohexyl-3-((3S,3aR,6S,6aS)-6-isopropylsulfanyl-hexahydro-furo[3,2-b]furan-3-yl)-urea]	9.00
O=C(NC1CCCCC1)N[C@H]1CO[C@H]2[C@@H]1OC[C@@H]2OCC(F)(F)F [Example 19, 1-Cyclohexyl-3-[(3S,3aR,6S,6aS)-6-(2,2,2-trifluoro-ethoxy)-hexahydro-furo[3,2-b]furan-3-yl]-urea]	8.05
O=C(NC1CCCCC1)N[C@H]1CO[C@H]2[C@@H]1OC[C@@H]2Oc1cccc(N2CCCCC2)c1 [Example 75, 1-cyclohexyl-3-[(3S,3aR,6S,6aS)-6-(3-piperidin-1-yl-phenoxy)-hexahydro-furo[3,2-b]furan-3-yl]-urea]	8.70
Cc1cc(S[C@H]2CO[C@H]3[C@@H]2OC[C@@H]3NC(=O)NC2CCCCC2)nc(C)n1 [Example 61, 1-Cyclohexyl-3-[(3S,3aR,6S,6aS)-6-(2,6-dimethyl-pyrimidin-4-ylsulfanyl)-hexahydro-furo[3,2-b]furan-3-yl]-urea]	> 9.00
Cc1ncccc1O[C@H]1CO[C@H]2[C@@H]1OC[C@@H]2NC(=O)NCC1CN(C)CCO1 (stereo partly drawn) [Example 219, 1-(4-Methyl-morpholin-2-ylmethyl)-3-[(3S,3aR,6S,6aS)-6-(2-methyl-pyridin-3-yloxy)-hexahydro-furo[3,2-b]furan-3-yl]-urea]	5.72
Cc1ncccc1O[C@H]1CO[C@H]2[C@@H]1OC[C@@H]2NC(=O)NC(C)(C)Cc1ccc(F)cc1 [Example 185, 1-[2-(4-Fluoro-phenyl)-1,1-dimethyl-ethyl]-3-[(3S,3aR,6S,6aS)-6-(2-methyl-pyridin-3-yloxy)-hexahydro-furo[3,2-b]furan-3-yl]-urea]	7.54
Cc1nc(CNC(=O)N[C@H]2CO[C@H]3[C@@H]2OC[C@@H]3Oc2cccnc2C)cs1 [Example 227, 1-[(3S,3aR,6S,6aS)-6-(2-Methyl-pyridin-3-yloxy)-hexahydro-furo[3,2-b]furan-3-yl]-3-(2-methyl-thiazol-4-ylmethyl)-urea]	5.77
Cc1ncccc1O[C@H]1CO[C@H]2[C@@H]1OC[C@@H]2NC(=O)NCC1COC(C)(C)O1 (stereo partly drawn) [Example 191, 1-(2,2-Dimethyl-[1,3]dioxolan-4-ylmethyl)-3-[(3S,3aR,6S,6aS)-6-(2-methyl-pyridin-3-yloxy)-hexahydro-furo[3,2-b]furan-3-yl]-urea]	6.31
O=C(NC1CCCCC1)N[C@H]1CO[C@H]2[C@@H]1OC[C@@H]2Oc1cc(F)ccc1Cl [Example 131, 1-[(3S,3aR,6S,6aS)-6-(2-Chloro-5-fluoro-phenoxy)-hexahydro-furo[3,2-b]furan-3-yl]-3-cyclohexyl-urea]	8.70
Cc1ncccc1O[C@H]1CO[C@H]2[C@@H]1OC[C@@H]2NC(=O)NC1CCN(C(=O)C(C)C)CC1 [Example 212, 1-(1-Isobutyryl-piperidin-4-yl)-3-[(3S,3aR,6S,6aS)-6-(2-methyl-pyridin-3-yloxy)-hexahydro-furo[3,2-b]furan-3-yl]-urea]	7.43
O=C(NC1CCCCC1)N[C@H]1CO[C@@H]2[C@@H](CCc3ccc4c(c3)OCO4)CO[C@@H]21 [Example 347, 1-[(3S,3aR,6S,6aR)-6-(2-benzo[1,3]dioxol-5-yl-ethyl)-hexahydro-furo[3,2-b]furan-3-yl]-3-cyclohexyl-urea]	6.89
C[C@H](NC(=O)N[C@H]1CO[C@H]2[C@@H]1OC[C@@H]2Oc1ccc(F)cc1)C1CCCCC1 [Example 156, 1-((S)-1-Cyclohexyl-ethyl)-3-[(3S,3aR,6S,6aS)-6-(4-fluoro-phenoxy)-hexahydro-furo[3,2-b]furan-3-yl]-urea]	7.62
Cc1ncccc1OC1COC2C(NC(=O)NC34CC5CC(CC(O)(C5)C3)C4)COC12 [Example 193, 1-((1R,3S,5R,7S)-3-Hydroxy-adamantan-1-yl)-3-[(3S,3aR,6S,6aS)-6-(2-methyl-pyridin-3-yloxy)-hexahydro-furo[3,2-b]furan-3-yl]-urea]	7.29
COCCCNC(=O)NC1COC2C(Oc3cccnc3C)COC12 [Example 175, 1-(3-Methoxy-propyl)-3-[(3S,3aR,-6S,6aS)-6-(2-methyl-pyridin-3-yl-oxy)-hexahydro-furo[3,2-b]furan-3-yl]-urea]	6.01
Cc1ncccc1O[C@H]1CO[C@H]2[C@@H]1OC[C@@H]2NC(=O)NCCCn1nc(C(F)(F)F)cc1C [Example 243, 1-[(3S,3aR,6S,6aS)-6-(2-Methyl-pyridin-3-yloxy)-hexahydro-furo[3,2-b]furan-3-yl]-3-[3-(5-methyl-3-tri-fluoromethyl-pyrazol-1-yl)-propyl]-urea]	7.39
Cc1cccc(CNC(=O)N[C@H]2CO[C@H]3[C@@H]2OC[C@@H]3C#Cc2ccsc2)c1 [Example 305, 1-(3-Methyl-benzyl)-3-((3S,3aR,6S,6aR)-6-thiophen-3-ylethynyl-hexahydro-furo[3,2-b]furan-3-yl)-urea]	6.61
O=C(Nc1ccc2c(c1)OCCO2)N[C@H]1CO[C@H]2[C@@H]1OC[C@@H]2/C=C\c1ccccc1 [Example 318, 1-(2,3-Dihydro-benzo[1,4]dioxin-6-yl)-3-[(3S,3aR,6S,6aR)-6-((Z)-styryl)-hexahydro-furo[3,2-b]furan-3-yl]-urea]	6.64
O=C(Nc1ccc2c(c1)CCC2)N[C@H]1CO[C@H]2[C@@H]1OC[C@@H]2/C=C\c1ccsc1 [Example 341, 1-Indan-5-yl-3-[(3S,3aR,6S,6aR)-6-((Z)-2-thiophen-3-yl-vinyl)-hexa-hydro-furo[3,2-b]furan-3-yl]-urea]	7.05
C[C@@H](NC(=O)N[C@H]1CO[C@H]2[C@@H]1OC[C@@H]2Oc1ccc(F)cc1)c1ccc(F)cc1 [Example 159, 1-[(3S,3aR,6S,6aS)-6-(4-Fluoro-phenoxy)-hexahydro-furo[3,2-b]furan-3-yl]-3-[(R)-1-(4-fluoro-phenyl)-ethyl]-urea]	8.30
